Experimental data: patent US20140213513A1 (Sanofi, priority 2012, published 2014)
pEC50: −log10 of the molar value. *1 amine or outer side, *2 acyl side, *3 side chain or, on linkers, in order; H or OH if unused. Where a SMILES comes first, the peptide text is derived from it. Side-chain parts run from the residue outwards. [ ]: non-standard residue; d: D form. The star is where a group is joined. γGlu = O=C(O)[C@H](CCC(=O)[*:2])N[*:1]; Stearoyl = CCCCCCCCCCCCCCCCCC(=O)*; Palmitoyl = CCCCCCCCCCCCCCCC(=O)*; Aib = CC(C)(N)C(=O)O

Experiments:
Assay type in all cases: cell-based
Details in all cases: Table 7; cAMP formation
[1] = biological target: T1, human GIP receptor (hGIP R) (Homo sapiens, UniProt P48546); test: cAMP response of HEK-293 cells stably expressing human GIP receptor (HTRF)
T1 construct: expressed in transfected cells
T1 sequence (P48546 22-466): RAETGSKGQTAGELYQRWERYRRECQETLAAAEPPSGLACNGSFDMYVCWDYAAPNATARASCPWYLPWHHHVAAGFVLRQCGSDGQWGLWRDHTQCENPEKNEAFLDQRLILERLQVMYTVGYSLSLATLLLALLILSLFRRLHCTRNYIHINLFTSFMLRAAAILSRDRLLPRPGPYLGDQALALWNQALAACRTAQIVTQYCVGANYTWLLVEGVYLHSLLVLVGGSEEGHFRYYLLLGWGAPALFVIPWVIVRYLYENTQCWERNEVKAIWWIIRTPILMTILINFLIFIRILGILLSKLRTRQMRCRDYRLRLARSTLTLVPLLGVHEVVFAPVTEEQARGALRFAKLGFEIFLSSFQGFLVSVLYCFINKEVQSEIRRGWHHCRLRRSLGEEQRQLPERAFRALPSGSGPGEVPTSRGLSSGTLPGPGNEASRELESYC
Summary of the method: (§1)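 After near-confluent growth in DMEM with 10% FBS, cells were washed in Ca/Mg-free PBS, lifted with accutase and diluted to 400000 cells/ml in IBMX (2 mM)-containing HEPES-buffered HBSS with 0.1% BSA. Compounds were applied for 30 minutes at room temperature before homogeneous time-resolved fluorescence quantitation of cAMP.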

[2] = biological target: T2, human GLP-1 receptor (hGLP-1 R) (Homo sapiens, UniProt P43220); test: cAMP response of HEK-293 cells stably expressing human GLP-1 receptor (HTRF)
T2 construct: expressed in transfected cells
Summary of the method: as §1

[3] = biological target: T3, human glucagon receptor (hGLUC R) (Homo sapiens, UniProt P47871); test: cAMP response of HEK-293 cells stably expressing human glucagon receptor (HTRF)
T3 construct: expressed in transfected cells
Summary of the method: as §1

T3 sequence (P47871 26-477): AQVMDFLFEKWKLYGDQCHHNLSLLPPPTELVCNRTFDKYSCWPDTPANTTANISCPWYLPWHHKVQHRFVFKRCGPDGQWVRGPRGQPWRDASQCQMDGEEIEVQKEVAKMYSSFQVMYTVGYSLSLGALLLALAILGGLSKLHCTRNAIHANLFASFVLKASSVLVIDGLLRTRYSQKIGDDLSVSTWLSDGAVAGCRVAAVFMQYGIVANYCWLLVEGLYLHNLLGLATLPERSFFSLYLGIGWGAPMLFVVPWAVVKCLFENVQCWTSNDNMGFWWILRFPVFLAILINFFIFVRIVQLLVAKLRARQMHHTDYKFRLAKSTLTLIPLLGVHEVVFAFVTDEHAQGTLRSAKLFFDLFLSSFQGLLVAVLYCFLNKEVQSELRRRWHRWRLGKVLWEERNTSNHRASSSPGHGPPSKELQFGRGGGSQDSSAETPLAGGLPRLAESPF
T2 sequence (P43220 24-463): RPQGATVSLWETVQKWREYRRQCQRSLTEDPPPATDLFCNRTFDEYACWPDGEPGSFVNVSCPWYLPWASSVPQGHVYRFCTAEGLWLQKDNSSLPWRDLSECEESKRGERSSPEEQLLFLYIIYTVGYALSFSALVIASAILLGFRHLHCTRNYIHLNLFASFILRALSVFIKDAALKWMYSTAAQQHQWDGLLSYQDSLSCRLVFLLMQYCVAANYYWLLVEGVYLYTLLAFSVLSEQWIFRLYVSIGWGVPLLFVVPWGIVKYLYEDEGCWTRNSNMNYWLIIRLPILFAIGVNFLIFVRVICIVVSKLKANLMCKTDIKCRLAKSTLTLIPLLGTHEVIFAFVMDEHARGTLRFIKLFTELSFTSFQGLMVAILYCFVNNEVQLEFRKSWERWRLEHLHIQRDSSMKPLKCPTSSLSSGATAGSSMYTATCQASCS

Compound	pEC50 [1]	pEC50 [2]	pEC50 [3]
CCCCCCCCCCCCCCCC(=O)N[C@@H](CCC(=O)NCCCC[C@H](NC(=O)[C@H](CCC(N)=O)NC(=O)[C@@H](NC(=O)[C@H](CO)NC(=O)[C@H](CC(C)C)NC(=O)[C@H](CC(=O)O)NC(=O)[C@H](CO)NC(=O)[C@@H](NC(=O)[C@H](Cc1ccccc1)NC(=O)[C@@H](NC(=O)CNC(=O)[C@H](CCC(=O)O)NC(=O)C(C)(C)NC(=O)[C@@H](N)Cc1ccc(O)cc1)[C@@H](C)O)[C@@H](C)O)[C@@H](C)CC)C(=O)N[C@@H](CCC(=O)O)C(=O)N[C@@H](CCCCN)C(=O)N[C@@H](CCCNC(=N)N)C(=O)N[C@@H](C)C(=O)N[C@@H](C)C(=O)N[C@@H](Cc1c[nH]cn1)C(=O)N[C@@H](CCC(=O)O)C(=O)N[C@@H](Cc1ccccc1)C(=O)N[C@H](C(=O)N[C@@H](CCC(=O)O)C(=O)N[C@@H](Cc1c[nH]c2ccccc12)C(=O)N[C@@H](CC(C)C)C(=O)N[C@@H](CCCCN)C(=O)N[C@@H](CC(N)=O)C(=O)N[C@H](C(=O)NCC(=O)N1CCC[C@H]1C(=O)N[C@@H](CO)C(=O)N[C@@H](CO)C(=O)NCC(=O)N[C@@H](C)C(=O)N1CCC[C@H]1C(=O)N1CCC[C@H]1C(=O)N1CCC[C@H]1C(=O)N[C@@H](CO)C(N)=O)[C@@H](C)O)[C@@H](C)CC)C(=O)O [SEQ ID NO: 59, Y-Aib-E-G-T-F-T-S-D-L-S-I-Q-K(yE-x53)-EKRAAHEFIEWLKNTGPSSGAPPPS-NH2] (H-Y[Aib]EGTFTSDLSIQK([γGlu-Palmitoyl])EKRAAHEFIEWLKNTGPSSGAPPPS-NH2)	10.76	11.12	7.91
CCCCCCCCCCCCCCCC(=O)N[C@@H](CCC(=O)NCCCC[C@H](NC(=O)[C@H](CCC(N)=O)NC(=O)[C@H](CCCCN)NC(=O)[C@H](CO)NC(=O)[C@H](CC(C)C)NC(=O)[C@H](CC(=O)O)NC(=O)[C@H](CO)NC(=O)[C@@H](NC(=O)[C@H](Cc1ccccc1)NC(=O)[C@@H](NC(=O)CNC(=O)[C@H](CCC(N)=O)NC(=O)C(C)(C)NC(=O)[C@@H](N)Cc1ccc(O)cc1)[C@@H](C)O)[C@@H](C)O)C(=O)N[C@@H](CC(=O)O)C(=O)N[C@@H](CO)C(=O)N[C@@H](CCCNC(=N)N)C(=O)N[C@@H](C)C(=O)N[C@@H](C)C(=O)N[C@@H](CCCNC(=N)N)C(=O)N[C@@H](CC(=O)O)C(=O)N[C@@H](Cc1ccccc1)C(=O)N[C@H](C(=O)N[C@@H](CCC(=O)O)C(=O)N[C@@H](Cc1c[nH]c2ccccc12)C(=O)N[C@@H](CC(C)C)C(=O)N[C@@H](CCCCN)C(=O)N[C@@H](C)C(=O)NCC(=O)NCC(=O)N1CCC[C@H]1C(=O)N[C@@H](CO)C(=O)N[C@@H](CO)C(=O)NCC(=O)N[C@@H](C)C(=O)N1CCC[C@H]1C(=O)N1CCC[C@H]1C(=O)N1CCC[C@H]1C(=O)N[C@@H](CO)C(N)=O)[C@@H](C)CC)C(=O)O [SEQ ID NO: 56, Y-Aib-Q-G-T-F-T-S-D-L-S-K-Q-K(yE-x53)-DSRAARDFIEWLKAGGPSSGAPPPS-NH2] (H-Y[Aib]QGTFTSDLSKQK([γGlu-Palmitoyl])DSRAARDFIEWLKAGGPSSGAPPPS-NH2)	9.79	11.34	10.70
CCCCCCCCCCCCCCCC(=O)N[C@@H](CCC(=O)NCCCC[C@H](NC(=O)[C@H](CCC(N)=O)NC(=O)[C@H](CCCCN)NC(=O)[C@H](CO)NC(=O)[C@H](CC(C)C)NC(=O)[C@H](CC(=O)O)NC(=O)[C@H](CO)NC(=O)[C@@H](NC(=O)[C@H](Cc1ccccc1)NC(=O)[C@@H](NC(=O)CNC(=O)[C@H](CCC(N)=O)NC(=O)C(C)(C)NC(=O)[C@@H](N)Cc1ccc(O)cc1)[C@@H](C)O)[C@@H](C)O)C(=O)N[C@@H](CCC(=O)O)C(=O)N[C@@H](CO)C(=O)N[C@@H](CCCCN)C(=O)N[C@@H](C)C(=O)N[C@@H](C)C(=O)N[C@@H](CCC(N)=O)C(=O)N[C@@H](CC(=O)O)C(=O)N[C@@H](Cc1ccccc1)C(=O)N[C@H](C(=O)N[C@@H](CCC(=O)O)C(=O)N[C@@H](Cc1c[nH]c2ccccc12)C(=O)N[C@@H](CC(C)C)C(=O)N[C@@H](CCCCN)C(=O)N[C@@H](C)C(=O)NCC(=O)NCC(=O)N1CCC[C@H]1C(=O)N[C@@H](CO)C(=O)N[C@@H](CO)C(=O)NCC(=O)N[C@@H](C)C(=O)N1CCC[C@H]1C(=O)N1CCC[C@H]1C(=O)N1CCC[C@H]1C(=O)N[C@@H](CO)C(N)=O)[C@@H](C)CC)C(=O)O [SEQ ID NO: 39, Y-Aib-Q-G-T-F-T-S-D-L-S-K-Q-K(yE-x53)-ESKAAQDFIEWLKAGGPSSGAPPPS-NH2] (H-Y[Aib]QGTFTSDLSKQK([γGlu-Palmitoyl])ESKAAQDFIEWLKAGGPSSGAPPPS-NH2)	10.41	11.35	10.72
CCCCCCCCCCCCCCCC(=O)N[C@@H](CCC(=O)NCCCC[C@H](NC(=O)[C@H](CCC(N)=O)NC(=O)[C@@H](NC(=O)[C@H](CO)NC(=O)[C@H](CC(C)C)NC(=O)[C@H](CC(=O)O)NC(=O)[C@H](CO)NC(=O)[C@@H](NC(=O)[C@H](Cc1ccccc1)NC(=O)[C@@H](NC(=O)CNC(=O)[C@H](CCC(N)=O)NC(=O)C(C)(C)NC(=O)[C@@H](N)Cc1ccc(O)cc1)[C@@H](C)O)[C@@H](C)O)[C@@H](C)CC)C(=O)N[C@@H](CC(=O)O)C(=O)N[C@@H](CO)C(=O)N[C@@H](CCCNC(=N)N)C(=O)N[C@@H](C)C(=O)N[C@H](C(=O)N[C@@H](CCC(N)=O)C(=O)N[C@@H](CC(=O)O)C(=O)N[C@@H](Cc1ccccc1)C(=O)N[C@H](C(=O)N[C@@H](CCC(=O)O)C(=O)N[C@@H](Cc1c[nH]c2ccccc12)C(=O)N[C@@H](CC(C)C)C(=O)N[C@@H](CCCCN)C(=O)N[C@@H](C)C(=O)NCC(=O)NCC(=O)N1CCC[C@H]1C(=O)N[C@@H](CO)C(=O)N[C@@H](CO)C(=O)NCC(=O)N[C@@H](C)C(=O)N1CCC[C@H]1C(=O)N1CCC[C@H]1C(=O)N1CCC[C@H]1C(=O)N[C@@H](CO)C(N)=O)[C@@H](C)CC)C(C)C)C(=O)O [SEQ ID NO: 50, Y-Aib-Q-G-T-F-T-S-D-L-S-I-Q-K(yE-x53)-DSRAVQDFIEWLKAGGPSSGAPPPS-NH2] (H-Y[Aib]QGTFTSDLSIQK([γGlu-Palmitoyl])DSRAVQDFIEWLKAGGPSSGAPPPS-NH2)	10.32	11.00	8.76
CCCCCCCCCCCCCCCCCC(=O)N[C@@H](CCC(=O)NCCCC[C@H](NC(=O)[C@H](CCC(N)=O)NC(=O)[C@@H](NC(=O)[C@H](CO)NC(=O)[C@H](CC(C)C)NC(=O)[C@H](CC(=O)O)NC(=O)[C@H](CO)NC(=O)[C@@H](NC(=O)[C@H](Cc1ccccc1)NC(=O)[C@@H](NC(=O)CNC(=O)[C@H](CCC(=O)O)NC(=O)C(C)(C)NC(=O)[C@@H](N)Cc1ccc(O)cc1)[C@@H](C)O)[C@@H](C)O)[C@@H](C)CC)C(=O)N[C@@H](CCC(=O)O)C(=O)N[C@@H](CO)C(=O)N[C@@H](CCCCN)C(=O)N[C@@H](C)C(=O)N[C@@H](C)C(=O)NC(C)(C)C(=O)N[C@@H](CCC(=O)O)C(=O)N[C@@H](Cc1ccccc1)C(=O)N[C@H](C(=O)N[C@@H](CCC(=O)O)C(=O)N[C@@H](Cc1c[nH]c2ccccc12)C(=O)N[C@@H](CC(C)C)C(=O)N[C@@H](CCCCN)C(=O)N[C@@H](C)C(=O)NCC(=O)NCC(=O)N1CCC[C@H]1C(=O)N[C@@H](CO)C(=O)N[C@@H](CO)C(=O)NCC(=O)N[C@@H](C)C(=O)N1CCC[C@H]1C(=O)N1CCC[C@H]1C(=O)N1CCC[C@H]1C(=O)N[C@@H](CO)C(=O)N[C@@H](CCCCN)C(N)=O)[C@@H](C)CC)C(=O)O [SEQ ID NO: 16, Y-Aib-E-G-T-F-T-S-D-L-S-I-Q-K(yE-x70)-E-S-K-A-A-Aib-EFIEWLKAGGPSSGAPPPSK-NH2] (H-Y[Aib]EGTFTSDLSIQK([γGlu-Stearoyl])ESKAA[Aib]EFIEWLKAGGPSSGAPPPSK-NH2)	10.81	11.15	7.77
CCCCCCCCCCCCCCCC(=O)N[C@@H](CCC(=O)NCCCC[C@H](NC(=O)[C@H](CCC(N)=O)NC(=O)[C@@H](NC(=O)[C@H](CO)NC(=O)[C@H](CC(C)C)NC(=O)[C@H](CC(=O)O)NC(=O)[C@H](CO)NC(=O)[C@@H](NC(=O)[C@H](Cc1ccccc1)NC(=O)[C@@H](NC(=O)CNC(=O)[C@H](CCC(N)=O)NC(=O)C(C)(C)NC(=O)[C@@H](N)Cc1ccc(O)cc1)[C@@H](C)O)[C@@H](C)O)[C@@H](C)CC)C(=O)N[C@@H](CC(=O)O)C(=O)N[C@@H](CCC(=O)O)C(=O)N[C@@H](CCCNC(=N)N)C(=O)N[C@@H](C)C(=O)N[C@@H](C)C(=O)N[C@@H](CCCCN)C(=O)N[C@@H](CC(=O)O)C(=O)N[C@@H](Cc1ccccc1)C(=O)N[C@H](C(=O)N[C@@H](CCC(=O)O)C(=O)N[C@@H](Cc1c[nH]c2ccccc12)C(=O)N[C@@H](CC(C)C)C(=O)N[C@@H](CCCCN)C(=O)N[C@@H](C)C(=O)NCC(=O)NCC(=O)N1CCC[C@H]1C(=O)N[C@@H](CO)C(=O)N[C@@H](CO)C(=O)NCC(=O)N[C@@H](C)C(=O)N1CCC[C@H]1C(=O)N1CCC[C@H]1C(=O)N1CCC[C@H]1C(=O)N[C@@H](CO)C(N)=O)[C@@H](C)CC)C(=O)O [SEQ ID NO: 35, Y-Aib-Q-G-T-F-T-S-D-L-S-I-Q-K(yE-x53)-DERAAKDFIEWLKAGGPSSGAPPPS-NH2] (H-Y[Aib]QGTFTSDLSIQK([γGlu-Palmitoyl])DERAAKDFIEWLKAGGPSSGAPPPS-NH2)	10.74	11.46	9.91
